Measurements from patent US20200037609A1, “HERBICIDAL COMPOSITIONS AND METHODS OF USE THEREOF” (The Regents of the University of California, priority 2017, published 2020).

Legend:
[1] = test system: S. cerevisiae ΔILV3 expressing AstD; assay: Growth inhibition of S. cerevisiae ΔILV3 in ILV dropout media; format: cell-based; conditions: Saccharomyces cerevisiae, read-out: IC50 of growth inhibition, yeast expressing AstD
Description: Growth inhibition assay of S. cerevisiae on plates or in the tubes. S. cerevisiae was grown in isoleucine, leucine and valine (ILV) dropout media (20 g/L glucose, 0.67 g/L Difco™ Yeast Nitrogen Base w/o amino acids, 18 mg/L adenine, arginine 76 mg/L, asparagine 76 mg/L, aspartic acid 76 mg/L, glutamic acid 76 mg/L, histidine 76 mg/L, lysine 76 mg/L, methionine 76 mg/L, phenylalanine 76 mg/L, serine 76 mg/L, threonine 76 mg/L, tryptophan 76 mg/L, tyrosine 76 mg/L) to test growth inhibition of AA on S. cerevisiae. S. cerevisiae was incubated at 28° C. until OD600 of the control strain without AA treatment reached about 0.8. The ratio of yeast OD600 in media with AA treatment to yeast OD600 in media without AA was calculated as the percentage of growth inhibition. The inhibition curve was plotted as percentage of inhibition versus AA concentrations. […] The growth curves of TY05, TY06 and TY07 were also plotted (FIG. 29A-29D). The OD600 was recorded for every 20 minutes over a total of 50 h. The inhibition percentage can be calculated by following equation: […]

Streptomyces sp. Mg1 = assay: Streptomyces growth inhibition assay; format: cell-based; conditions: 250 μM aspterric acid
Description: Streptomyces sp. Mg1 was plated onto MS media either with or without 250 μM aspterric acid. Plates were incubated at 28° C.

Arabidopsis thaliana = assay: Agar-based plant growth inhibition assay on MS media; format: in vivo; conditions: for growth of A. thaliana on MS media: 50 μM aspterric acid
Description: Agar-based growth inhibition assays were carried out on MS media (4.33 g Murashige and Skoog basal medium, 20 g sucrose, and 10 g Agar per liter MS media, pH was adjusted to 5.7 using KOH). Aspterric acid at a final concentration of 50 μM was included in the experimental media. DMSO at final concentration of 1% was used to increase the solubility of aspterric acid. The control MS media contained the same amount of DMSO, but no aspterric acid. Sterilized Arabidopsis thaliana seeds were plated on MS media. After 2 days of cold treatment at 4° C. in the dark, plates were transferred to standard growing condition (16 hour light and 8 hour dark at 22° C.) to geminate. After germination on day 4, the seedlings were transferred to MS media containing 50 μM aspterric acid. MS media containing only DMSO was used as a control. Images were taken at day 8 and day 12 to assay growth inhibition activity of aspterric acid on Arabidopsis thaliana.
(§1) Growth inhibition assay of plants on plates or in the tubes. MS (2.16 g/L Murashige and Skoog basal medium, 8 g/L sucrose, 8 g/L agar) media was used to test the growth inhibition of AA on A. thaliana, Solanum lycopersicum, and Zea mays. A. thaliana, S. lycopersicum, G. max and Z. mays were grown under long day condition (16/8 h light/dark) using cool-white fluorescence bulbs as the light resource at 23° C. AA was dissolved in ethanol and added to the media before inoculating strains or growing plants. The media of control treatment contains the same amount of ethanol, but without AA.

Zea mays = assay: Plant growth inhibition assay on MS media; format: in vivo; conditions: 50 μM AA
Description: as §1

[2] = test system: soil-grown Arabidopsis thaliana Col-0 ecotype plants; assay: Herbicidal spray experiments with 1 mM aspterric acid in solvent formulations; format: in vivo
Description: Aspterric acid was dissolved in the following solvent formulations at a final concentration of 1 mM: (1) 0.5% silwet L-77 and 1% DMSO (floral dip formulation), (2) 2% EtOH, 1% corn oil, and 0.1% tween 80, and (3) 2% EtOH and 0.05% Finale (Finale formulation, contains a final concentration of […]).
For spray treatments with aspterric acid in the various formulations described above, Arabidopsis thaliana Col-0 ecotype plants were grown in soil under long day conditions (16 hours of light followed by 8 hours of dark per day) at 23° C. using cool-white fluorescence bulbs as the light source. Ten-day old seedlings were sprayed with 1 mM aspterric acid dissolved in formulation (1), (2), or (3) as described above. Spray application with the various respective formulations was repeated every 2 days.

Compound: CC(C)=C1CC[C@]23CO[C@H](C2)[C@@](O)(C(=O)O)CC[C@@H]13 [aspterric acid]
- IC50 [1]: ~200 µM
- growth of Streptomyces on MS media (Streptomyces sp. Mg1): inhibited the growth
- growth of A. thaliana on MS media (Arabidopsis thaliana): significant vegetative growth inhibition
- growth of A. thaliana on MS media (Arabidopsis thaliana; listed as AA): potently inhibit
- growth of wild-type A. thaliana on media (Arabidopsis thaliana; 100 μM AA): strongly inhibited
- root development and plant growth of Zea mays on MS media (Zea mays): effective inhibitor of root development and plant growth
- growth after spray, formulation (1) ([2]; 1 mM in 0.5% silwet L-77 and 1% DMSO, every 2 days, 18 days after first spray): showed growth inhibition
- growth after spray, formulation (3) ([2]; 1 mM in 2% EtOH and 0.05% Finale, glufosinate-resistant plants, 18 days after first spray): significant growth inhibition
- growth after spray, formulation (2) ([2]; 1 mM in 2% EtOH, 1% corn oil, 0.1% tween 80, every 2 days, 17 days after first spray): showed growth inhibition
